Here are results for 1 compound from ChEMBL document CHEMBL1129869, “SPORANDOL: A NOVEL ANTIPARASITIC BINAPHTHALENE FROM CHRYSOSPORIUM MERIDARIUM” (Bioorg Med Chem Lett, 1997).

Activity calls are given as the source filed them. The rule behind the calls is not given here.

In test [1] the test system is Dipetalogaster maximus. As to the kind of experiment: Antiparasitic activity against ecto parasite Dipetalogaster maximus in mouse at a dose of 190 mg/kg; Active. In kind it is functional, organism-based. More on the design: dose 190 mg/kg.
In test [2] the test system is Fasciola hepatica. The test is described as follows: Antiparasitic activity against endo parasite Fasciola hepatica in mouse at a dose of 190 mg/kg; Active. The format is functional, organism-based. More on the design: dose 190 mg/kg.

Regarding `COc1cc2cc(C)c(C(C)=O)c(O)c2c(O)c1-c1c(OC)cc2cc(C)c(C(C)=O)c(O)c2c1O`, the result in test [1] and in test [2] was Active.
